We go through seven compounds from US10435388B2, “Selective inhibitors of clinically important mutants of the EGFR tyrosine kinase” (CS PHARMATECH LIMITED, priority 2016, dated 2019).

Assay [1] deals with NCI-H1975 cells (EGFR L858R/T790 double mutant). Nature of the assay: H1975 inhibition assay (cell proliferation), Method A. The assay is classed as cell-based. Conditions: Homo sapiens; cellular proliferation, NCI-H1975 cells, 72 h, CellTiter-Glo (Table 1); read-out: NCI-H1975 IC50 (nM) DM. On the procedure:
(§1) Cell Proliferation Assays—Method A
H1975 Inhibition Assay (Cell Proliferation)
(§2) The final concentration was 4,000 cells/well. Add medium only as low control.
(§3) Day-2: Test compounds were dissolved in DMSO at 0.2 mM (200×).
(§4) Day-5: After 72 hours incubation, remove the plates from incubator and equilibrate at room temperature for 15 minutes. Incubate the CellTiter Glo reagents (Promega, G9243) at 37° C. before the experiment. The buffer was equilibrated to room temperature and used to dissolve the substrate. To determine the cell viability, add 30 μL of CellTiter-Glo reagent into each well to be detected. Then shake the plates at room temperature for 10 min and followed by plate read on Envision (PerkinElmer).
(§5) For estimation of IC50, the luminescence readout are transformed to % Inhibition by applying the following equation: The IC50 was then
(§6) [formula] calculated by fitting in XLFit to a four parameters logistic curve.
For orientation: ATP-based viability assays read luminescence as a measure of living cells.

Assay [2] concerns PC9 cells (EGFR d746-750 single mutant). Kind of assay: PC-9 growth inhibition assay (cell proliferation), Method A. The assay is classed as cell-based, human. Conditions: Homo sapiens, PC-9; cellular proliferation, PC9 cells, 72 h, CellTiter-Glo (Table 1); read-out: PC9 IC50 (nM) SM. On the procedure:
as §1, §2, §3, §4, §5, §6
PC-9 Growth Inhibition Assay (Cell Proliferation)
The inhibition assay for PC-9 cells was processed in the same manner as described for the H1975 cells.

Assay [3] concerns p-EGFR in H1975 cells (L858R/T790M double mutant EGFR).
For assay [4], the system named is p-EGFR in PC9 cells (Exon 19 deletion EGFR). Nature of the assay: Exon19 deletion EGFR (activating single mutant) PC-9 cellular autophosphorylation assay. The following applies: 2 h treatment, ELISA. The assay is classed as cell-based, human. On the procedure:
Cellular EGFR Autophosphorylation Assays.
The human lung cell line PC9 (Exon 19 deletion EGFR) is obtained from the American type Culture Collection. […] Cells are grown in a humidified incubator at 37° C. with 5% CO2, Assays to measure cellular phosphorylation of endogenous p-EGFR in cell Iysates are carried out according to the protocol described in the R&D Systems DuoSet IC Human Phospho-EGF R ELISA (R&D Systems catalogue number #DYCI095). 40 μL of cells are seeded (10000 cells/well) in growth medium in Corning black, clear-bottomed 384-well plates and incubated at 37° C., with 5%0/CO2 overnight. […] Plates are incubated for a further 2 h, then following aspiration of medium, 40 μL×lysis buffer is added to each well. Greiner black high bind 384 well plates are coated with capture antibody and then blocked with 3% BSA. Following removal of block, 15 μL of lysate are transferred to the Greiner black high bind 384 well plates and incubated for 2 hours. Following aspiration and washing of the plates with PBS, 20 μL of detection antibody are added and incubated for 2 hours. […] The data obtained with each compound are exported into a suitable software package (such as Origin) to perform curve fitting analysis.

Another assay deals with T1, IGF-1R (Homo sapiens, UniProt P08069).
T1 construct: purchased CARNA BIOSCIENCE 08-141
T1 sequence (P08069 959-1367 limits assumed): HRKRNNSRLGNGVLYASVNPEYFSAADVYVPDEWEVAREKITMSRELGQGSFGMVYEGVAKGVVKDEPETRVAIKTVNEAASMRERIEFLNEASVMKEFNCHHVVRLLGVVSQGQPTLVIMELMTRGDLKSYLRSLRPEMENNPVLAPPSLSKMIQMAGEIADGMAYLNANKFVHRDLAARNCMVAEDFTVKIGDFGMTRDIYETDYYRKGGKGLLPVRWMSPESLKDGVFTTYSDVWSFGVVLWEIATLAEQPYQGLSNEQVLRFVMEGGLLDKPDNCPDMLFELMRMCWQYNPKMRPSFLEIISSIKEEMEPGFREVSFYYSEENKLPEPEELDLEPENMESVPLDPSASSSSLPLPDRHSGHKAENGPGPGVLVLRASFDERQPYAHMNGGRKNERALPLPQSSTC
Nature of the assay: IGF-1R inhibition assay (Caliper EZ Reader). The assay is classed as biochemical. The following applies: enzyme assay. Here is the method:
(§7) Test compound was dissolved in DMSO at 30 mM. […] 20 nL of these compounds DMSO dilutes were dispensed into a new 384-well assay plate by Echo 550. […] 15 uL of kinase assay buffer containing IGF-1R protein and substrate was transferred to assay plate and incubate at RT for 30 minutes. Kinase assay buffer supplemented with substrate peptides was employed as low control to monitor the background. 40 μM ATP was prepared in kinase assay buffer containing and 5 μL of ATP solution was added to each well to start the reaction. The assay plate was incubated at 25° C. for 180 minutes and the reaction was stopped by adding 40 μL of 0.5 M EDTA.
Phosphorylated fluorescent-tagged peptides were differentiated from non-phosphorylated peptides by separating using Caliper EZ Reader II and the detection was directly converted to conversion ratio.

The next assay has as its target T2, INSR (Homo sapiens, UniProt P06213).
T2 construct: purchased CARNA BIOSCIENCE 08-142
Kind of assay: INSR inhibition assay (Caliper EZ Reader). Conditions: enzyme assay. It is filed as biochemical. On the procedure: as §7, with “INSR” for “IGF-1R”, “LM” for “μM”
The result is analyzed in the same manner of […].

Assay [5] relates to LoVo cells (unmutated EGFR wild type). Kind of assay: LoVo growth inhibition assay (cell proliferation), Method A. It is filed as cell-based. Conditions: Homo sapiens, cellular proliferation, 72 h, CellTiter-Glo (Table 1), read-out: LoVo IC50 (nM) WT. Here is the method:
as §1
LoVo Growth Inhibition Assay (Cell Proliferation)
The rest of the procedure was carried out in the same manner as described for the H1975 cells.

The next assay concerns the target EGFR_d746-750 (Homo sapiens, UniProt P00533, DEL746-750). Nature of the assay: Enzyme assay, IC50 for single mutant EGFR_d746-750 (Caliper). The following applies: enzyme phosphorylation assay. It is filed as biochemical. On the procedure: (§8) Using the same technique as described in the previous paragraph, various mutated forms of the epidermal growth factor receptor may be isolated from appropriate cell lines which contain them. For example, the EGFR de1746-750 mutant protein may be extracted from PC-9 cells, and the L858R/T790M double mutant EGFR protein may be isolated from H1975 cells.
Determination of IC50 Values for Single Mutant EGFR_d746-750
Dilute all compounds to 500 μM stock solutions in 100% DMSO and make a serial of 4-fold dilution for 10 doses. “Max” and “Min” control contain 100% DMSO. “Max” stands for […], “Min” stands for low control without compounds. Transfer 10 μl of compounds to 90 μl of 1× kinase base buffer to make intermediate dilution. […] Incubate at RT for 1 hr and 25 μl stop buffer to end up reaction. Collect conversion data from Caliper and conversion data from Caliper program. Fit the data in XLfit to obtain IC50 values.

Another assay addresses T3, Wt EGFR (Homo sapiens, UniProt P00533).
T3 construct: isolated from A431 human epidermoid carcinoma cells which overexpress EGF receptor; endogenous in cells; host or cells: A431 human epidermoid carcinoma cells (receptor purified on wheat germ agglutinin sepharose)
Nature of the assay: Enzyme assay, IC50 for wt EGFR (Caliper). Conditions: enzyme phosphorylation assay; read-out: EGFR_WT IC50. It is filed as biochemical. Here is the method: Purification of Epidermal Growth Factor Receptor Tyrosine Kinase Human EGF receptor tyrosine kinase was isolated from A431 human epidermoid carcinoma cells which overexpress EGF receptor by the following methods. Cells were grown in roller bottles in 50% Delbuco's Modified Eagle and 50% HAM F-12 nutrient media (Gibco) containing 10% fetal calf serum. Approximately 10^9 cells were lysed in two volumes of buffer containing 20 mM 2-(4N-[2-hydroxyethyl]piperazin-1-yl)ethanesulfonic acid (hepes), pH 7.4, 5 mM ethylene glycol bis(2-aminoethyl ether) N,N,N′,N′-tetraacetic acid, 1% Triton X-1OO, 10% glycerol. 0.1 mM sodium orthovanadate, 5 mM sodium fluoride, 4 mM pyrophosphate, 4 mM benzamide, 1 mM dithiothreitol, 80 μg/mL aprotinin, 40 μg/mL leupeptin and 1 mM phenylmethylsulfonyl fluoride. After centrifugation at 25,000×g for 10 minutes, the supernatant was equilibrated for 2 h at […], with 10 mL of wheat germ agglutinin sepharose that was previously equilibrated with 50 mM Hepes, 10% glycerol, 0.1% Triton X-100 and 150 mM NaCl, pH 7.5, (equilibration buffer). Contaminating proteins were washed from the resin with 1M NaCl in equilibration buffer, and the enzyme was eluted with 0.5M N-acetyl-1-D-glucosamine in equilibration buffer, followed by 1 mM urea. The enzyme was eluted with 0.1 mg/ml EGF.
Determination of IC50 Values for Wt EGFR
Dilute all compounds to 500 μM stock solutions in 100% DMSO and make a serial of 4-fold dilution for 10 does. “Max” and “Min” control contain 100% DMSO. “Max” stands for […], “Min” stands for low control without compounds. Transfer 10 μl of compounds to 90 μl of Ix kinase base buffer to make intermediate dilution. Transfer 5 μl of intermediate dilution compounds to the 384-well assay plate, then 10 μl 2.5× enzyme buffer containing (20 nM EGFR, 5 mM DTT, 1× kinase base buffer) were added to assay plate. […] Incubate at RT for 1 hr and 25 μl stop buffer to end up reaction. Collect conversion data from Caliper and conversion data from Caliper program. Fit the data in XLfit to obtain IC50 values.

In another assay the target is EGFR_T790M/L858R (Homo sapiens, UniProt P00533, L858R/T790M). Kind of assay: Enzyme assay, IC50 for double-mutant EGFR (EGFR_T790M/L858R) (Caliper). The assay is classed as biochemical. Conditions: enzyme phosphorylation assay; read-out: EGFR_L858R/T790 IC50. On the procedure: as §8
Sequence of EGFR_T790M/L858R (P00533 25-1210 T790M/L858R): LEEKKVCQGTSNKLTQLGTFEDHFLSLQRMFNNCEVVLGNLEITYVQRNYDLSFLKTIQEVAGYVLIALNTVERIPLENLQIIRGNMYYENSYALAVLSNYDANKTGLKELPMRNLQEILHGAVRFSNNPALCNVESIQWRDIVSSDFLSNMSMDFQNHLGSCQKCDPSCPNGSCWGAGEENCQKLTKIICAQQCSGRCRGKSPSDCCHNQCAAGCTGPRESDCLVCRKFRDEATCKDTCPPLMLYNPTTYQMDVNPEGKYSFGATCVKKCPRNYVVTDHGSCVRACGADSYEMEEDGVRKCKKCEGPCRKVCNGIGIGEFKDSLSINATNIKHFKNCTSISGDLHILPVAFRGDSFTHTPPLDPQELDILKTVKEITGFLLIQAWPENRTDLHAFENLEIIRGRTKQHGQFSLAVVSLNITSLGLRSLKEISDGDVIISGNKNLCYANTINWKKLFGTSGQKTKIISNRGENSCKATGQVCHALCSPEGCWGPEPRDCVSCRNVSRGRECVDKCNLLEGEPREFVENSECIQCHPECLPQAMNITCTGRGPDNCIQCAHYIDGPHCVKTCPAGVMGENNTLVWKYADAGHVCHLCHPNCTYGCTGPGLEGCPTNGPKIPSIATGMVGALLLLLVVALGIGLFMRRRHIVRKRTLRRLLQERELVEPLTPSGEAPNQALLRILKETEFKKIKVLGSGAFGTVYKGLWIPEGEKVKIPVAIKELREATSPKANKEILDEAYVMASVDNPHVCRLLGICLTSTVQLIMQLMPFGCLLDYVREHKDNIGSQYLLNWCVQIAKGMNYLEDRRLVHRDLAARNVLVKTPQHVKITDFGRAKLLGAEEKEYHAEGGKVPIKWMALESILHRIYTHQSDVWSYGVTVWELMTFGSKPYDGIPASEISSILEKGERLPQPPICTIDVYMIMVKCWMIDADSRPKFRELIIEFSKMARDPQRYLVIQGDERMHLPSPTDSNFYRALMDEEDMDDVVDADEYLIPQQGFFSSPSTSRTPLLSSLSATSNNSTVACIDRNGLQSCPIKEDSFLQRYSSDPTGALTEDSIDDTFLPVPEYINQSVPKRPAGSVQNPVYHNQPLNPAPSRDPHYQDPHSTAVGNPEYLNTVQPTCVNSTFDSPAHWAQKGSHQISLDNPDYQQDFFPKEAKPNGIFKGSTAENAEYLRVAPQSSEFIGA
Determination of IC50 Values for Double-Mutant EGFR (EGFR_T790M/L858R)
Dilute all compounds to 500 μM stock solutions in 100% DMSO and make a serial of 4-fold dilution for 10 does. “Max” and “Min” control contain 100% DMSO. “Max” stands for […], “Min” stands for low control without compounds. Transfer 10 μl of compounds to 90 μl of 1× kinase base buffer to make intermediate dilution. […] Incubate at RT for 1 hr and 25 μl stop buffer to end up reaction. Collect conversion data from Caliper and conversion data from Caliper program. Fit the data in XLfit to obtain IC50 values.

Where “and” joins values, the source holds several entries; their conditions need not be identical. Equal values may be shown once. Read-outs that look alike come from different tables or passages of the source.

Sequence of EGFR_d746-750 (P00533 with tags, fused parts or gaps DEL746-750): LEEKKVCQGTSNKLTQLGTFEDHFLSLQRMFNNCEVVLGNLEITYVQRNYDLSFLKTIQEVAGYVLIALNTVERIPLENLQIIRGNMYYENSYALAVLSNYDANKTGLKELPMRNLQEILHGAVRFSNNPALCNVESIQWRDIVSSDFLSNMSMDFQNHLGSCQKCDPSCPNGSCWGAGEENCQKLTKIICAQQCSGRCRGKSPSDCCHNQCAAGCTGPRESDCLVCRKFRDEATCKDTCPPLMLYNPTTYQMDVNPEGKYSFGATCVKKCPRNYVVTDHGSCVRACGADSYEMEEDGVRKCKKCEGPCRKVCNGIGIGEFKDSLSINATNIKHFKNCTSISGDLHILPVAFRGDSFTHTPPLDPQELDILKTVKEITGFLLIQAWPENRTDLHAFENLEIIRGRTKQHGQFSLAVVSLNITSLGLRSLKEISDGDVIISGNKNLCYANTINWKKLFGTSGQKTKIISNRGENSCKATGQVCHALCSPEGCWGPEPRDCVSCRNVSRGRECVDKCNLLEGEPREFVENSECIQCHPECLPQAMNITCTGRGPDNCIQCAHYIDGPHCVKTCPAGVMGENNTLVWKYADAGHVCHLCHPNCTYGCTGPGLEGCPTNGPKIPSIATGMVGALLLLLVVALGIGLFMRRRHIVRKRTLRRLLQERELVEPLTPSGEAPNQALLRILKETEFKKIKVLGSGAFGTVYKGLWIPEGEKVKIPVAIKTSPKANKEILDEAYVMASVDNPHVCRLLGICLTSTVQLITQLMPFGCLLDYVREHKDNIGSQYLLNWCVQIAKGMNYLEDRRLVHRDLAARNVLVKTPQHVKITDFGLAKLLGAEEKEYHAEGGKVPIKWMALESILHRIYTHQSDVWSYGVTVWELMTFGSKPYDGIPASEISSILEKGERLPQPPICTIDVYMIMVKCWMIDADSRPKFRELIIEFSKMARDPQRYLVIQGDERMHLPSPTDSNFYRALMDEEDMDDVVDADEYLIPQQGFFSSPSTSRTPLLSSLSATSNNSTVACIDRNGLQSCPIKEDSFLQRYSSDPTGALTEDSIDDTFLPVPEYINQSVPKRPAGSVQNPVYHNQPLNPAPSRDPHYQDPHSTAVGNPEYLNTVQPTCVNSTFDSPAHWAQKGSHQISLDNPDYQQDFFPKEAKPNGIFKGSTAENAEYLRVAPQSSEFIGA
T3 sequence (P00533 25-1210): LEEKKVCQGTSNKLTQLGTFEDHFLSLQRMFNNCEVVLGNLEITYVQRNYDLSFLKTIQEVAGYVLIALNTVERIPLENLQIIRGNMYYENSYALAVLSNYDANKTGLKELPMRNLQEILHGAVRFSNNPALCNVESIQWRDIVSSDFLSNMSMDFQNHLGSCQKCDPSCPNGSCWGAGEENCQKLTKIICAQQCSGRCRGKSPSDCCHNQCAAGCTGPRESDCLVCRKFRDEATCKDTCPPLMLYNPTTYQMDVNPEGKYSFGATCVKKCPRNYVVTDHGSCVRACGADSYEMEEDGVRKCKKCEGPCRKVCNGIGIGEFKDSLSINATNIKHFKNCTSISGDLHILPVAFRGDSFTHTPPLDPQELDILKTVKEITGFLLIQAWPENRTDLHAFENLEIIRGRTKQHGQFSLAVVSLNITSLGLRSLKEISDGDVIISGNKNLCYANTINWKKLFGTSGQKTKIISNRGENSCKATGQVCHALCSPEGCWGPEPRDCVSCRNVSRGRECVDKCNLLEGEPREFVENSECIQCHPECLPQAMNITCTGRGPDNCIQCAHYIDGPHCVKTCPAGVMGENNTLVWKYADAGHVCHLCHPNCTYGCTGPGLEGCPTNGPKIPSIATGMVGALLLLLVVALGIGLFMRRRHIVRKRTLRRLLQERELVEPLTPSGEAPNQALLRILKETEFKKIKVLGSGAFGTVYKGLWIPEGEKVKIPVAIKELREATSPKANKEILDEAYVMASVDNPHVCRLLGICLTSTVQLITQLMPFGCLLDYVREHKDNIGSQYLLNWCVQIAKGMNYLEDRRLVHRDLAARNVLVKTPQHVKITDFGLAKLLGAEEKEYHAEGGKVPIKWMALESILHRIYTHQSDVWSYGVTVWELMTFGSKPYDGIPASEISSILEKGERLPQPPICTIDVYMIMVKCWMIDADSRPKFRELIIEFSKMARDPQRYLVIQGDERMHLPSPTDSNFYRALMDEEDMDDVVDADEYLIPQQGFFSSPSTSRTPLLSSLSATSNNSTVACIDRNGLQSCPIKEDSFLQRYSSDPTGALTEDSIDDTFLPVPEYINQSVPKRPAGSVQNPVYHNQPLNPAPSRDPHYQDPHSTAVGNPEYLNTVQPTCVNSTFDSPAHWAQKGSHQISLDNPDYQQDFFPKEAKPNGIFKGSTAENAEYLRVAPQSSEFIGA

As to `C=CC(=O)Nc1cc(Nc2nccc(-c3cn(C)c4ccccc34)n2)c(OC)cc1N(C)CCN(C)C` [AZD-9291], the IC50 in assay [1] was […]; in assay [2], 8.4 nM; in [3] (Homo sapiens, NCI-H1975, 2 h, read-out: H1975 IC50 (nM), cellular EGFR autophosphorylation, 2 h treatment, ELISA), 22.7 nM; in assay [3] (read-out: H1975 IC50, cellular EGFR autophosphorylation, 2 h treatment, ELISA), 11.6 nM; in assay [4], 7.31 nM; in assay [4] (Homo sapiens, PC-9, 2 h), 12.1 nM. For the same compound, the IC50 was 249 nM and 321 nM at IGF-1R; […] against INSR; 2860 nM in assay [5].

For `C=CC(=O)Nc1cc(Nc2nccc(-n3ccc4ccccc43)n2)c(OC)cc1N(C)CCN(C)C` [Example 1], the IC50 was found to be 3.1 nM in assay [1]; 2.4 nM against EGFR_d746-750; 6.8 nM in assay [2]; 4.1 nM at Wt EGFR; 3570 nM in assay [5]; 0.7 nM at EGFR_T790M/L858R.

On to `C=CC(=O)Nc1cc(Nc2nccc(-n3cc(C)c4ccccc43)n2)c(OC)cc1N(C)CCN(C)C` [Example 2, N-(2-(N-(2-(N,N-Dimethylamino)ethyl)-N-methylamino)-4-methoxy-5-(4-(3-methylindol-1-yl)pyrimidin-2-ylamino)phenyl) propenamide], for which the IC50 was 7.5 nM in assay [1]; 3.1 nM against EGFR_d746-750; 12.3 nM in assay [2]; 7.1 nM at Wt EGFR; 5030 nM in [5]; 1.3 nM on EGFR_T790M/L858R.

Turning to `C=CC(=O)Nc1cc(Nc2nccc(-n3cc(Cl)c4ccccc43)n2)c(OC)cc1N(C)CCN(C)C` [Example 3, N-(2-(N,N-(2-(N,N-Dimethylamino)ethyl)-N-methylamino)-4-methoxy-5-(4-(3-chloroindol-1-yl)pyrimidin-2-ylamino)phenyl) propenamide], the IC50 in [1] stood at 17.9 nM; on EGFR_d746-750, 5.3 nM; in assay [2] it was 23.3 nM; on Wt EGFR it was 8.4 nM; in [5] it was 2810 nM; at EGFR_T790M/L858R, 1.5 nM.

As to `C=CC(=O)Nc1cc(Nc2nccc(-n3cc(C#N)c4ccccc43)n2)c(OC)cc1N(C)CCN(C)C` [Example 4, N-(2-(N-(2-(N,N-Dimethylamino)ethyl)-N-methylamino)-4-methoxy-5-(4-(3-cyanoindol-1-yl)pyrimidin-2-ylamino)phenyl) propenamide], the IC50 in [1] came out at 18.8 nM; against EGFR_d746-750, 2.6 nM; in [2], 25.9 nM; at Wt EGFR it was 3.8 nM; in assay [5], 2890 nM; on EGFR_T790M/L858R it was 0.84 nM.

As to `C=CC(=O)Nc1cc(Nc2nccc(-c3cn(C)c4cccc(Cl)c34)n2)c(OC)cc1N(C)CCN(C)C` [Example 6, N-(2-(N-(2-(N,N-Dimethylamino)ethyl)-N-methylamino)-4-methoxy-5-(4-(4-chloro-1N-methylindol-3-yl)pyrimidin-2-ylamino)phenyl) propenamide], the figures for the IC50 against EGFR_d746-750, on Wt EGFR and on EGFR_T790M/L858R were 9.2 nM, 44 nM and 7 nM, respectively.

With `C=CC(=O)Nc1cc(Nc2nccc(-n3cc(C(N)=O)c4ccccc43)n2)c(OC)cc1N(C)CCN(C)C` [Example 7, N-(2-(N-(2-(N,N-Dimethylamino)ethyl)-N-methylamino)-4-methoxy-5-(4-(3-carboxamidoindol-1-yl)pyrimidin-2-ylamino)phenyl) propenamide], the IC50 turned out to be 1.7 nM in assay [1]; 0.85 nM at EGFR_d746-750; 1.6 nM in assay [2]; 1.1 nM on Wt EGFR; 2630 nM in assay [5]; 1.2 nM on EGFR_T790M/L858R.
